ChEMBL document CHEMBL5365439, “Development of a Selective Peptide κ-Opioid Receptor Antagonist by Late-Stage Functionalization with Cysteine Staples” (J Med Chem, 2023)
Active and inactive are the calls of the source. No cut-off for these calls is given here. Numbered stars: 1 amine (or outer) side, 2 acyl side, 3 side chain; on linkers, the order of the positions; unused ones are H or OH. Bridge positions count the residues as written; N and C are the ends. Square brackets hold non-standard residues; d marks the D form. Peptide text beside a SMILES is read from it. CH2COCH2 = O=C(C[*:1])C[*:2]; CH2 = C([*:1])[*:2]; Mpa = O=C(O)CCS

Assays:
[1] = Stability in human serum assessed as degradation at 3 mg/ml measured after 15 mins by RP-HPLC analysis; format: ADME, cell-free
[2] = biological target: Kappa-type opioid receptor (Mus musculus) (UniProt P33534); test: (§1) Antagonist activity at mouse KOR expressed in HEK293 cells coexpressing EGFP/beta-arrestin2 fused NanoLuc assessed as reduction in beta-arrestin2 recruitment at 10 uM preincubated with furimazine for 5 mins followed by peptide addition and measured for 30 mins by BRET assay; format: functional, cell-based
[3] = biological target: Delta-type opioid receptor (Mus musculus) (UniProt P32300); test: Displacement of [3H]diprenorphine from mouse DOR expressed in HEK293 cell membrane at 10 uM incubated for 1 hr by radioligand displacement assay; format: cell membranes
[4] = biological target: Mu-type opioid receptor (Mus musculus) (UniProt P42866); test: Displacement of [3H]diprenorphine from mouse MOR expressed in HEK293 cell membrane at 10 uM incubated for 1 hr by radioligand displacement assay; format: cell membranes
[5] = biological target: T1, Kappa-type opioid receptor (Mus musculus, UniProt P33534); test: Competitive antagonist activity at mouse KOR expressed in HEK293 cells at 0.3 to 10 uM preincubated for 30 mins followed by U50,488 addition and measured after 30 mins by fluorescence based schild regression analysis; format: functional, cell-based; conditions: read-out: pA2 (converted)
[6] = biological target: Kappa-type opioid receptor (Mus musculus) (UniProt P33534); test: Antagonist activity at KOR in C57BL/6 mouse DRG neurons assessed as inhibition of U50,488 induced calcium mobilization at 1 to 10 uM preincubated with compound followed by U50,488 addition and measured for 12 mins by single cell calcium microfluorimetry analysis; format: functional, cell-based; conditions: DRG neuron, filed as antagonist, dose 1-10 µM
Mus musculus [7] = test: In vivo antagonist activity at KOR in CD-1 mouse model of U50,488 induced acute thermal nociception at 20 mg/kg, sc pretreated for 15 mins followed by U50,488 stimulation and measured after 30 to 60 mins by radiant heat tail flick assay; format: functional, organism-based; conditions: time 45-75 min
Mus musculus [8] = test: In vivo antagonist activity at KOR in CD-1 mouse model assessed as reversal of U50,488 induced motor impairment by measuring increase in latency to fall at 20 mg/kg, sc pretreated for 15 mins followed by U50,488 stimulation and measured at 30 mins by rotarod assay; format: functional, organism-based; conditions: time 45.0 min
[9] = biological target: T1, Kappa-type opioid receptor; test: Displacement of [3H]diprenorphine from mouse KOR expressed in HEK293 cell membrane assessed as inhibition constant incubated for 1 hr by radioligand displacement assay; format: cell membranes
[10] = biological target: Kappa-type opioid receptor (Mus musculus) (UniProt P33534); test: Antagonist activity at mouse KOR expressed in HEK293 cells assessed as forskolin-induced adenylyl cyclase-dependent cAMP formation at 10 uM incubated for 30 mins by HTRF analysis; format: functional, cell-based; conditions: filed as antagonist
[11] = biological target: Kappa-type opioid receptor (Mus musculus) (UniProt P33534); test: as §1, with “recruitment by measuring residual BRET signal” for “recruitment”, “assay relative to control” for “assay”; format: functional, cell-based; conditions: filed as antagonist
[12] = biological target: T1, Kappa-type opioid receptor; test: Modulation of mouse KOR expressed in HEK293 cells assessed as inhibition of forskolin-induced adenylyl cyclase-dependent cAMP formation incubated for 30 mins by HTRF analysis; format: functional, cell-based
[13] = biological target: T1, Kappa-type opioid receptor; test: Partial agonist activity at mouse KOR expressed in HEK293 cells assessed as inhibition of forskolin-induced adenylyl cyclase-dependent cAMP formation incubated for 30 mins by HTRF analysis; format: functional, cell-based
Mus musculus [14] = test: In vivo antagonist activity at KOR in CD-1 mouse model of U50,488 induced acute thermal nociception at 10 mg/kg, sc pretreated for 24 hrs followed by U50,488 stimulation and measured after 30 to 60 mins by radiant heat tail flick assay; format: functional, organism-based; conditions: time lower 24.5 hrs, time upper […]

For `CC[C@H](C)[C@H](NC(=O)[C@H](CCCN=C(N)N)NC(=O)[C@H](CCCN=C(N)N)NC(=O)[C@H](CC(C)C)NC(=O)[C@H](Cc1ccccc1)NC(=O)CNC(=O)CNC(=O)[C@@H](N)Cc1ccc(O)cc1)C(=O)N[C@@H](CCCN=C(N)N)C(=O)N1CCC[C@H]1C(=O)N[C@@H](CCCCN)C(=O)N[C@@H](CC(C)C)C(=O)N[C@@H](CCCCN)C(N)=O`, the Stability [1] was “Unstable” and the Activity [2] was “inactive”.

With `CC[C@H](C)[C@@H]1NC(=O)[C@H](CCCNC(=N)N)NC(=O)[C@H](CCCNC(=N)N)NC(=O)[C@H](CC(C)C)NC(=O)[C@H](Cc2ccccc2)NC(=O)CNC(=O)CNC(=O)[C@H](Cc2ccc(O)cc2)NC(=O)CCSCSC[C@@H](C(=O)N[C@@H](CCCCN)C(=O)N[C@@H](CC(C)C)C(=O)N[C@@H](CCCCN)C(N)=O)NC(=O)[C@H](CCCNC(=N)N)NC1=O` ([Mpa]YGGFLRRIRCKLK-NH2; linker 1-11 via CH2) the Activity [3] was “inactive” and the Activity [4] was “inactive”.

With `CC(C)C[C@H](NC(=O)[C@H](CCCCN)NC(=O)[C@@H]1CCCN1C(=O)[C@H](CCCNC(=N)N)NC(=O)[C@@H]1CSCSCCC(=O)N[C@@H](Cc2ccc(O)cc2)C(=O)NCC(=O)NCC(=O)N[C@@H](Cc2ccccc2)C(=O)N[C@@H](CC(C)C)C(=O)N[C@@H](CCCNC(=N)N)C(=O)N[C@@H](CCCNC(=N)N)C(=O)N1)C(=O)N[C@@H](CCCCN)C(N)=O` ([Mpa]YGGFLRRCRPKLK-NH2; linker 1-9 via CH2) the Activity [3] was “inactive”, the Activity [4] was “inactive” and the Kb [5] was 0.0316 µM. For the same compound, the Activity [6] was “Active”, the Activity (Mus musculus [7]) was “Active” and the Activity (Mus musculus [8]) was “Active”. The Ki [9] was 0.0068 µM, the Activity [10] was “Active” and the Activity [11] was 5%.

With `CC(C)C[C@H](NC(=O)[C@H](CCCCN)NC(=O)[C@@H]1CCCN1C(=O)[C@H](CCCNC(=N)N)NC(=O)[C@@H]1CSSCCC(=O)N[C@@H](Cc2ccc(O)cc2)C(=O)NCC(=O)NCC(=O)N[C@@H](Cc2ccccc2)C(=O)N[C@@H](CC(C)C)C(=O)N[C@@H](CCCNC(=N)N)C(=O)N[C@@H](CCCNC(=N)N)C(=O)N1)C(=O)N[C@@H](CCCCN)C(=O)O` ([Mpa]YGGFLRRCRPKLK-OH; disulfide 1-9) the Activity [2] was “inactive”.

For `CC(C)C[C@H](NC(=O)[C@H](CCCCN)NC(=O)[C@@H]1CCCN1C(=O)[C@H](CCCNC(=N)N)NC(=O)[C@@H]1CSCC(=O)CSCCC(=O)N[C@@H](Cc2ccc(O)cc2)C(=O)NCC(=O)NCC(=O)N[C@@H](Cc2ccccc2)C(=O)N[C@@H](CC(C)C)C(=O)N[C@@H](CCCNC(=N)N)C(=O)N[C@@H](CCCNC(=N)N)C(=O)N1)C(=O)N[C@@H](CCCCN)C(N)=O` ([Mpa]YGGFLRRCRPKLK-NH2; linker 1-9 via CH2COCH2), the Activity [3] was “inactive”, the Activity [4] was “inactive” and the Ki [9] was 0.032 µM. For the same compound, the EC50 [12] was 0.74 µM and the Activity [11] was 25%.

With `CC(C)C[C@H](NC(=O)[C@H](CCCCN)NC(=O)[C@@H]1CCCN1C(=O)[C@H](CCCNC(=N)N)NC(=O)[C@@H]1CSCC(=O)CSCCC(=O)N[C@@H](Cc2ccc(O)cc2)C(=O)NCC(=O)NCC(=O)N[C@@H](Cc2ccccc2)C(=O)N[C@@H](CC(C)C)C(=O)N[C@@H](CCCNC(=N)N)C(=O)N[C@@H](CCCNC(=N)N)C(=O)N1)C(=O)N[C@@H](CCCCN)C(=O)O` ([Mpa]YGGFLRRCRPKLK-OH; linker 1-9 via CH2COCH2) the Activity [3] was “inactive”, the Activity [4] was “inactive” and the Stability [1] was “Unstable”. The Ki [9] was 0.091 µM, the Activity ([2]; filed as antagonist) was “Active” and the EC50 [13] was 0.27 µM.

For `CC(C)C[C@H](NC(=O)[C@H](CCCCN)NC(=O)[C@@H]1CCCN1C(=O)[C@H](CCCNC(=N)N)NC(=O)[C@@H]1CSCSCCC(=O)N[C@@H](Cc2ccc(O)cc2)C(=O)NCC(=O)NCC(=O)N[C@@H](Cc2ccccc2)C(=O)N[C@@H](CC(C)C)C(=O)N[C@@H](CCCNC(=N)N)C(=O)N[C@@H](CCCNC(=N)N)C(=O)N1)C(=O)N[C@@H](CCCCN)C(=O)O` ([Mpa]YGGFLRRCRPKLK-OH; linker 1-9 via CH2), the Activity [3] was “inactive”, the Activity [4] was “inactive” and the Stability [1] was “Unstable”. For the same compound, the Ki [9] was 0.077 µM, the Activity ([2]; filed as antagonist) was “Active” and the Activity [10] was “Active”.

With `CC[C@H](C)[C@@H]1NC(=O)[C@H](CCCNC(=N)N)NC(=O)[C@H](CCCNC(=N)N)NC(=O)[C@H](CC(C)C)NC(=O)[C@H](Cc2ccccc2)NC(=O)CNC(=O)CNC(=O)[C@H](Cc2ccc(O)cc2)NC(=O)CCSCSC[C@@H](C(=O)N[C@@H](CCCCN)C(=O)N[C@@H](CC(C)C)C(=O)N[C@@H](CCCCN)C(=O)O)NC(=O)[C@H](CCCNC(=N)N)NC1=O` ([Mpa]YGGFLRRIRCKLK-OH; linker 1-11 via CH2) the Activity [3] was “inactive”, the Activity [4] was “inactive” and the Stability [1] was “Unstable”. The Activity ([2]; filed as antagonist) was “Active” and the Activity [10] was “Active”.

For `Oc1ccc2c3c1O[C@H]1c4[nH]c5c(c4C[C@@]4(O)[C@@H](C2)N(CC2CC2)CC[C@]314)C[C@@]1(O)[C@H]2Cc3ccc(O)c4c3[C@@]1(CCN2CC1CC1)[C@H]5O4`, the Activity (Mus musculus [14]) was “Active”.

With `CC[C@H](C)[C@@H]1NC(=O)[C@H](CCCNC(=N)N)NC(=O)[C@H](CCCNC(=N)N)NC(=O)[C@H](CC(C)C)NC(=O)[C@H](Cc2ccccc2)NC(=O)CNC(=O)CNC(=O)[C@H](Cc2ccc(O)cc2)NC(=O)CCSCC(=O)CSC[C@@H](C(=O)N[C@@H](CCCCN)C(=O)N[C@@H](CC(C)C)C(=O)N[C@@H](CCCCN)C(=O)O)NC(=O)[C@H](CCCNC(=N)N)NC1=O` ([Mpa]YGGFLRRIRCKLK-OH; linker 1-11 via CH2COCH2) the Activity [2] was “inactive”.
